Test: solubility of the active ingredient according to pH (FIG. 1)
Assay type: physicochemical
Conditions: at acid pHs; increases as pH rises (FIG. 1)
Text: The main aim of the invention was to obtain an oral form in which the rate of release of the active ingredient is controlled and reproducible. In fact, in the current form the dissolution of the active ingredient varies greatly according to pH. This characteristic, associated with gliclazide itself, poses absorption problems for the active ingredient. The solubility is very weak at acid pHs and increases as pH rises.
FIG. 1 represents the phenomenon of the solubility of the active ingredient varying according to pH.

## Cc1ccc(S(=O)(=O)NC(=O)NN2CC3CCCC3C2)cc1 (stereo not shown) [gliclazide, Gliclazide]
  solubility of the active ingredient: very weak
